Where a name gives a salt, the structure may show the parent alone. Read-outs that look alike come from different tables or passages of the source.
How the values were obtained:
HeLa-MaTu-ADR cells = test: Proliferation assay (HeLa-MaTu-ADR cell line); type: cell-based; conditions: read-out: Biological Assay 2: Proliferation assay (HeLa-MaTu-ADR cell line) median IC50
Method: (§1) Cultivated tumor cells (cells were ordered from ATCC, except HeLa-MaTu and HeLa-MaTu-ADR, which were ordered from EPO-GmbH, Berlin) were plated at a density of 1000 to 5000 cells/well, depending on the growth rate of the respective cell line, in a 96-well multititer plate in 200 μL of their respective growth medium supplemented 10% fetal calf serum. After 24 hours, the cells of one plate (zero-point plate) were stained with crystal violet (see below), while the medium of the other plates was replaced by fresh culture medium (200 μl), to which the test substances were added in various concentrations (0 μM, as well as in the range of 0.001-10 μM; the final concentration of the solvent dimethyl sulfoxide was 0.5%). The cells were incubated for 4 days in the presence of test substances. Cell proliferation was determined by staining the cells with crystal violet: the cells were fixed by adding 20 μl/measuring point of an 11% glutaric aldehyde solution for 15 minutes at room temperature. After three washing cycles of the fixed cells with water, the plates were dried at room temperature. The cells were stained by adding 100 μl/measuring point of a 0.1% crystal violet solution (pH 3.0). After three washing cycles of the stained cells with water, the plates were dried at room temperature. The dye was dissolved by adding 100 μl/measuring point of a 10% acetic acid solution. […] The change of cell number, in percent, was calculated by normalization of the measured values to the aborbtion values of the zero-point plate (=0%) and the absorbtion of the untreated (0 μm) cells (=100%). The IC50 values were determined by means of a 4 parameter fit using the company's own software.

HeLa cells = test: Proliferation assay (HeLa cell line); type: cell-based; conditions: read-out: Biological Assay 2: Proliferation assay (HeLa cell line) median IC50
DU145 cells = test: Proliferation assay (DU145 cell line); type: cell-based; conditions: read-out: Biological Assay 2: Proliferation assay (DU145 cell line) median IC50
Method: as §1

[1] = target: catalytic domain of human Bub1 (amino acids 704-1085) (Homo sapiens (Human), UniProt O43683); test: Bub1 kinase assay (TR-FRET); type: biochemical; conditions: 10 μM ATP, 1 μM peptide substrate; read-out: Biological Assay 1: Bub1 kinase assay median IC50
Outline: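 Phosphoserine product detected by TR-FRET (Eu-labeled anti-mouse IgG/anti-phosphoserine antibody to streptavidin-XL665) after 1 h at 22 °C. IC50 from 4-parameter logistic fit.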

B16F10 cells = test: Proliferation assay (B16F10 cell line); type: cell-based; conditions: read-out: Biological Assay 2: Proliferation assay (B16F10 cell line) median IC50
Method: as §1

NCI-H460 cells = test: Proliferation assay (H460 cell line); type: cell-based; conditions: read-out: Biological Assay 2: Proliferation assay (H460 cell line) median IC50
Method: as §1

Caco2 cells = test: Proliferation assay (Caco2 cell line); type: cell-based; conditions: read-out: Biological Assay 2: Proliferation assay (Caco2 cell line) median IC50
Method: as §1

[2] = 96 h, HeLa-MaTu-ADR, 4 days, crystal violet
[3] = Homo sapiens, 96 h, 4 days, crystal violet
[4] = Homo sapiens, DU-145, 96 h, DU145, 4 days, crystal violet
[5] = Mus musculus, B16-F10, 96 h, B16F10, 4 days, crystal violet
[6] = Homo sapiens, NCI-H460, 96 h, H460, 4 days, crystal violet
[7] = Homo sapiens, Caco-2, 96 h, Caco2, 4 days, crystal violet
[8] = HeLa-MaTu-ADR, 4 days, crystal violet

catalytic domain of human Bub1 (amino acids 704-1085), sequence (O43683 704-1085): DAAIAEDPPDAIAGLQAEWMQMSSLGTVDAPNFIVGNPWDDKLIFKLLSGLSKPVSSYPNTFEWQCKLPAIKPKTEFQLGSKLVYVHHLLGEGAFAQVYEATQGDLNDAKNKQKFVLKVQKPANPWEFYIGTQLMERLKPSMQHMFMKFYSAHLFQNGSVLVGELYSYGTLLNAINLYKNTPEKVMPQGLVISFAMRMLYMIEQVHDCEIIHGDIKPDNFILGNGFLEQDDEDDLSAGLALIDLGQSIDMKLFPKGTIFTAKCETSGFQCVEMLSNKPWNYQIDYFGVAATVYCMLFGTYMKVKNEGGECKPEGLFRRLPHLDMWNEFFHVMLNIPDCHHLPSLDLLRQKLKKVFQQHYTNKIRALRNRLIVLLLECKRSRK

Compound	IC50 (HeLa-MaTu-ADR cells; 96 h) [nM]	IC50 (HeLa cells; Homo sapiens, 96 h) [nM]	IC50 (DU145 cells; Homo sapiens, DU-145, 96 h) [nM]	IC50 [1] [nM]	IC50 (B16F10 cells; Mus musculus, B16-F10, 96 h) [nM]	IC50 (NCI-H460 cells; Homo sapiens, NCI-H460, 96 h) [nM]	IC50 (Caco2 cells; Homo sapiens, Caco-2, 96 h) [nM]	IC50 (HeLa-MaTu-ADR cells; [2]) [nM]	IC50 (HeLa cells; [3]) [nM]	IC50 (DU145 cells; [4]) [nM]	IC50 (B16F10 cells; [5]) [nM]	IC50 (NCI-H460 cells; [6]) [nM]	IC50 (Caco2 cells; [7]) [nM]	IC50 (HeLa-MaTu-ADR cells; [8]) [nM]	IC50 (DU145 cells; DU145, 4 days, crystal violet) [nM]	IC50 (B16F10 cells; B16F10, 4 days, crystal violet) [nM]	IC50 (NCI-H460 cells; H460, 4 days, crystal violet) [nM]	IC50 (Caco2 cells; Caco2, 4 days, crystal violet) [nM]	IC50 (HeLa cells; 4 days, crystal violet) [nM]
OCC1(COc2cnc(-c3nn(Cc4ccccc4F)c4ccccc34)nc2Nc2ccncc2)COC1 [Example 4-2-1, {3[({2-[1-(2-fluorobenzyl)-1H-indazol-3-yl]-4-(pyridin-4-ylamino)pyrimidin-5-yl}oxy)methyl]oxetan-3-yl}methanol]	5800	8700	10000	3.3	3700	6500	9900												
CN(C)CCOc1cnc(-c2nn(Cc3ccccc3F)c3ccccc23)nc1Nc1ccncc1 [Example 4-4, 5-[2-(dimethyl-amino)ethoxy]-2-[1-(2-fluorobenzyl)-1H-indazol-3-yl] N-(pyridin-4-yl)pyrimidin-4-amine]				14				1200	3400	4500	500	3500	900						
CCOc1cc(F)c(Cn2nc(-c3ncc(OCCN(C)C)c(Nc4ccncc4)n3)c3ccccc32)c(F)c1 [Example 4-8, 5-[2-(dimethyl-amino)ethoxy]-2-[1-(4-ethoxy-2,6-difluorobenzyl)-1H-indazol-3-yl]-N-(pyridin-4~ yl)pyrimidin-4-amine]	360	1300	1200	8	570	1100	760												
CCOc1cc(F)c(Cn2nc(-c3ncc(OCC(O)CN4CCCCC4)c(Nc4ccncc4)n3)c3ccccc32)c(F)c1 (stereo not drawn) [Example 4-9, 1-({2-[1-(4-ethoxy-2,6-difluorobenzyl)-1H-indazol-3-yl]-4-(pyridin-4-ylamino)pyrimidin-5-yl}oxy)-3-(piperidin-1-yl)propan-2-ol]	860	1700	1300	5.4	530	1300	780												
CCOc1cc(F)c(Cn2nc(-c3ncc(OC[C@H]4CCC(=O)N4)c(Nc4ccncc4)n3)c3ccccc32)c(F)c1 [Example 4-19, (5R)-5-[({2-[1-(4-ethoxy-2,6-difluorobenzyl)-1H-indazol-3-yl]-4-(pyridin-4-ylamino)pyrimidin-5-yl}oxy)methyl] pyrrolidin-2-one]	10000	1200	2300	10	530	2200	10000												
CCOc1cc(F)c(Cn2nc(-c3ncc(OC[C@@H]4CCC(=O)N4)c(Nc4ccncc4)n3)c3ccccc32)c(F)c1 [Example 4-22, (5S)-5-[({2-[1-(4-ethoxy-2,6-difluorobenzyl)-1H-indazol-3-yl]-4-(pyridin-4-ylamino)pyrimidin-5-yl}oxy)methyl] pyrrolidin-2-one]	10000	1900	3600	5.8	1200	2100	9500												
COc1ccc(Cn2nc(-c3nccc(Nc4ccncc4)n3)c3ccccc32)cc1 [Example 5-2, 2-[1-(4-methoxybenzyl)-1H-indazol-3-yl]-N-(pyridin-4-yl)pyrimidin-4-amine]	3000	710	3000	27	3000	3000	3000												
C/C=C/c1cc(F)c(Cn2nc(-c3ncc(OC)c(Nc4ccncc4)n3)c3ccccc32)c(F)c1 [Example 6-2, 2-(1-{2,6-difluoro-4-[(1E)-prop-1-en-1-yl]benzyl}-1H-indazol-3-yl)-5-methoxy-N-(pyridin-4-yl)pyrimidin-4-amine]	1600	1400	1400	7.4	1100	1700	1200												
CCOc1cc(F)c(Cn2nc(-c3ncc(OC(F)F)c(N(c4ccncc4)C(F)F)n3)c3ccccc32)c(F)c1 [Example 10-2]				420				590	1700	1400	900	1500	1100						
OCC(O)COc1cnc(-c2nn(Cc3ccccc3F)c3ccccc23)nc1Nc1ccncc1 (stereo not drawn) [Example 12-1, 3-({2-[1-(2-fluorobenzyl)-1H-indazol-3-yl]-4-(pyridin-4-ylamino)-pyrimidin-5-yl}oxy)propane-1,2-diol]	10000	≥ 10000	10000	11	10000	10000	10000												
CCOc1cc(F)c(Cn2nc(-c3ncc(OCCO)c(Nc4ccncc4)n3)c3ccccc32)c(F)c1 [Example 13-1, 2-({2-[1-(4-ethoxy-2,6-difluorobenzyl)-1H-indazol-3-yl]-4-(pyridin-4-ylamino)pyrimidin-5-yl}oxy)ethanol]				3.3				1300	1500	1600	790	1300	1200						
CCOc1cc(F)c(Cn2nc(-c3ncc(OC)c(Nc4ccncc4)n3)c3ccccc32)c(F)c1 [Example 15-1, 2-[1-(4-ethoxy-2,6-difluorobenzyl)-1H-indazol-3-yl]-5-methoxy-N-(pyridin-4-yl)pyrimidin-4-amine hydrochloride (1:1)]				5.2					1400					1200	1200	760	2200	1200	
CNC(=O)c1ccc(Cl)c(Cn2nc(-c3ncc(OC)c(Nc4ccncc4)n3)c3ccccc32)c1Cl [Example 20-1, 2,4-dichloro-3-({3-[5-methoxy-4-(pyridin-4-ylamino)pyrimidin-2-yl]-1H-indazol-1-yl}methyl)-N-methylbenzamide]				200				3000	190	3000	2400	3000	3000						
CCOc1cc(F)c(Cn2nc(-c3ncc(OCC4CNCCO4)c(Nc4ccncc4)n3)c3ccccc32)c(F)c1 (stereo not drawn) [Example 38-2]				3.4										1100	1300	600	1100	600	1200
COc1cnc(-c2nn(Cc3c(Cl)ccc(NC(C)=O)c3Cl)c3ccccc23)nc1Nc1ccncc1 [Example 41-1, N-[2,4-dichloro-3-({3-[5-methoxy-4-(pyridin-4-ylamino)pyrimidin-2-yl]-1H-indazol-1-yl}methyl)phenyl]acetamide]				19				10000	6000	10000	1800	10000	3300						

Source: patent publication US10266548B2, “Substituted benzylindazoles for use as Bub1 kinase inhibitors in the treatment of hyperproliferative diseases” (Bayer Intellectual Property GmbH, priority 2011, dated 2019)
